Source: article PMC10541198, “Specific quinone reductase 2 inhibitors reduce metabolic burden and reverse Alzheimer’s disease phenotype in mice” (The Journal of Clinical Investigation, 2023)
Where “and” joins values, the source holds several entries; their conditions need not be identical. Equal values may be shown once.

System: 5xFAD mice
Assay: Morris water maze in 5xFAD mice
Assay type: in vivo, mouse
Conditions: for MWM escape latency (individual mice): 5xFAD 1 month
Protocol: We next aimed to test the effect of QR2 inhibition in AD model mice using YB-537, taking advantage of its extremely high specificity, solubility, and lack of toxicity. First, we determined YB-537 pharmacokinetics (PK) and oral bioavailability and assessed any acute observable toxicity in mice. […] We therefore opted to chronically deliver YB-537 to AD-model mice via their drinking water, so they may freely ingest the inhibitor at 50 mg/kg, with minimal intervention or trauma, for 1 month. We chose 9-month-old 5xFAD ([27]) male and female mice in double-blind experiments, so that well-progressed symptoms and pathologies would be present, to mimic clinically relevant cases in human patients ([35]), as has been previously described in this mouse model. Other than an improvement in nest quality ([36]) over time seen in animals receiving YB-537 (starting at age 8 months and ending at age 9 months), no changes to general physical parameters or wellbeing were observed over the 1 month of YB-537 ingestion (Supplemental Figure 6, A–J). Animals received the treatment for a week, and, on week 2, behavioral experiments commenced, including Morris water maze (MWM) and novel object recognition (NOR). These were carried out in parallel, with half of the animals (including both sexes and treatments) undergoing 1 of the paradigms in week 2, and the other in week 3. […] Since learning in this paradigm was slow, and performance was poor even following 6 days of training (using 4 learning trials a day), a test day was not carried out and instead only the learning rate was measured. […] Finally, during week 4, all the mice underwent DFC.
MWM was carried out as previously described ([57]). Mice were trained 4 times a day, using 60 second trials every 30 minutes during which they were placed into the pool, each time from a different quadrant, and allowed to swim to find the escape platform. All trials were filmed with a video tracking system using EthoVision 14 (Noldus Information Technology), and escape latency, or time to find the submerged escape platform, was determined by video analysis. […]
Morri s wat er maze ( MWM) was carried out as previously described(58). At the sam e time each consecutive day, mice were placed in the dimly lit room containing the maze for 10 min, within cages containing dry bedding (not the home cages). The maze was obscured by a non-light- permeable curtain. The maze consisted of a 1.2 m pool, with RT (21- 23 °C) water colored light grey, to hide the submerged (under 1- 2 cm) transparent, 10 cm in diam et er plastic escape platform, which was placed at t he south- western quadrant of the pool. Mi ce wer e trained 4 times a day, using 60 s trials ever y 30 min during which t he y were pl a c ed into t he pool, each time fr om a di fferent quadrant, and allowed to swim and find t he escape platform. Upon reaching t he platform, m ice were removed fr om t he pool. If the mice f ai led to find the […] within 60 s, […]
they were carefully placed on the escape platform and held there for 15 s prior to being taken out of the pool. All trials were filmed with a video tracking system using EthoVision 14 (Noldus Information Technology), andescape latency (time to find the submer ged escape platform) was determined by manual video analysis (due to automated det ect ion settings unable to discern all mice coat c ol or s – bl a c k, white a nd brown - against the opaque water).
Mice were individually placed within a cage and taken to a dimly lit room containing an open field arena 50 x 50 cm in size. They were gi ve n 10 min prior to be i ng placed within the arena, where f or a period of 5 min they were allowed to explore. Two weeks later, this was repeated. The mice were filmed with an Ikegami ICD-49E camera with EthoVision 14 (Noldus Information Technology). Th e fl oor was ei ther whit e or black,dependingon mous e coat c ol or, to allow automatic analysisof movement par am et ers, apar t from rearing which was manually counted. […]

SMILES: Cc1ccc(-c2cn3cccc(C)c3n2)cc1S(=O)(=O)N1CCNCC1 [YB-537]
- MWM escape latency (individual mice) (both sexes, Day 1): 60.0 (8×) and 29.4 and 26.8 and 55.1 and 57.2 and 53.5 (2×) and 41.6 and 50.9
- MWM escape latency (individual mice) (both sexes, Day 2): 60.0 (6×) and 28.0 and 23.5 and 59.7 and 50.7 and 45.3 and 33.5 and 15.1 and 54.5 and 36.1 and 58.0
- MWM escape latency (individual mice) (both sexes, Day 3): 48.7 and 59.3 and 42.1 and 33.7 and 34.3 and 45.6 and 37.0 and 60.0 (2×) and 49.6 and 35.1 and 26.9 and 13.8 and 47.4 and 47.7 and 54.0
- MWM escape latency (individual mice) (both sexes, Day 4, in s (unit assumed)): 44.6 and 57.9 and 24.5 and 37.5 and 31.1 and 37.6 and 51.0 and 60.0 and 52.1 and 34.3 and 5.9 and 14.1 and 13.3 and 23.0 and 48.5 and 53.9
- MWM escape latency (individual mice) (both sexes, Day 5, in s (unit assumed)): 19.0 and 40.4 and 25.1 and 16.2 and 18.6 and 45.8 and 60.0 and 50.4 and 37.0 and 38.2 and 5.7 and 19.6 and 7.3 and 21.1 and 16.8 and 48.8
- MWM escape latency (individual mice) (both sexes, Day 6): 39.3 and 17.9 and 20.3 and 12.9 and 14.8 and 34.0 and 50.7 and 60.0 and 14.1 and 16.8 and 5.6 and 7.2 (2×) and 16.3 and 19.0 and 27.9
- MWM escape latency (individual mice) (males, Day 5, in s (unit assumed)): 16.2 and 18.6 and 45.8 and 60.0
- spatial learning in MWM (escape latency over 6 days) (5xFAD, 50 mg/kg in drinking water, 1 month, both sexes): trend toward faster spatial learning
